Here are results for 27 molecules from ChEMBL document CHEMBL1201862, “PubChem BioAssay data set” (2004).

The source made the active and inactive calls.

One test deals with Prothrombin (Homo sapiens, UniProt P00734). The test is described as follows: Thrombin 1536 HTS Dose Response Confirmation. [Related pubchem assays: 1046 (Thrombin 1536 HTS; hits were confirmed in this assay)]. The class given is functional.
In another test the target is T1, Protein RecA (Mycobacterium tuberculosis, UniProt P9WHJ3).
T1 sequence (P9WHJ3 whole entry): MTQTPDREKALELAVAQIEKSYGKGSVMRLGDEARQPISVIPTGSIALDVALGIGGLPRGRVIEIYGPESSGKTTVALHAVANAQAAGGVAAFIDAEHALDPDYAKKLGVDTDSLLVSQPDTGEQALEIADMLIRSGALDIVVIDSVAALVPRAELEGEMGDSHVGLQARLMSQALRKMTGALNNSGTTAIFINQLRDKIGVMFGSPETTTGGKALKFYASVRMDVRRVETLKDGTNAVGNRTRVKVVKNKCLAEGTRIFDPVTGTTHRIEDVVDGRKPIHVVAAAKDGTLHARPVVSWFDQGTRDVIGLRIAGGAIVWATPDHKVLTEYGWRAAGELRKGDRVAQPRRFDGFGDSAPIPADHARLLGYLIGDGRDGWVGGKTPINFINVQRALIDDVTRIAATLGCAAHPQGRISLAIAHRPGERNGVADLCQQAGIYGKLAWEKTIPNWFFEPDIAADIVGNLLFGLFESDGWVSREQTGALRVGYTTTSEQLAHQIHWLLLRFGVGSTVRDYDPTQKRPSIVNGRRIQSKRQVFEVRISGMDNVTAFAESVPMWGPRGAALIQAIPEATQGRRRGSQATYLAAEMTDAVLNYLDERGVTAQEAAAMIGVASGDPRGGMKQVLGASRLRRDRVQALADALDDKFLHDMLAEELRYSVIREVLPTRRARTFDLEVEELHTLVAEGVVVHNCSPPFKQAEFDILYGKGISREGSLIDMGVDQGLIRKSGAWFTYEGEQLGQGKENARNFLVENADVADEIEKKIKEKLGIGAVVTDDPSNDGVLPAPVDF
In words: Fluorescence Cell-Free Homogeneous Dose Retest to Identify Inhibitors of RecA-Intein Splicing Activity. [Related pubchem assays (depositor defined):AID2097, AID2223, AID489010, AID492950]. Format: functional.

The target in test [1] is T2, Replicative DNA helicase DnaB (Mycobacterium tuberculosis, UniProt P9WMR3).
T2 sequence (P9WMR3 whole entry): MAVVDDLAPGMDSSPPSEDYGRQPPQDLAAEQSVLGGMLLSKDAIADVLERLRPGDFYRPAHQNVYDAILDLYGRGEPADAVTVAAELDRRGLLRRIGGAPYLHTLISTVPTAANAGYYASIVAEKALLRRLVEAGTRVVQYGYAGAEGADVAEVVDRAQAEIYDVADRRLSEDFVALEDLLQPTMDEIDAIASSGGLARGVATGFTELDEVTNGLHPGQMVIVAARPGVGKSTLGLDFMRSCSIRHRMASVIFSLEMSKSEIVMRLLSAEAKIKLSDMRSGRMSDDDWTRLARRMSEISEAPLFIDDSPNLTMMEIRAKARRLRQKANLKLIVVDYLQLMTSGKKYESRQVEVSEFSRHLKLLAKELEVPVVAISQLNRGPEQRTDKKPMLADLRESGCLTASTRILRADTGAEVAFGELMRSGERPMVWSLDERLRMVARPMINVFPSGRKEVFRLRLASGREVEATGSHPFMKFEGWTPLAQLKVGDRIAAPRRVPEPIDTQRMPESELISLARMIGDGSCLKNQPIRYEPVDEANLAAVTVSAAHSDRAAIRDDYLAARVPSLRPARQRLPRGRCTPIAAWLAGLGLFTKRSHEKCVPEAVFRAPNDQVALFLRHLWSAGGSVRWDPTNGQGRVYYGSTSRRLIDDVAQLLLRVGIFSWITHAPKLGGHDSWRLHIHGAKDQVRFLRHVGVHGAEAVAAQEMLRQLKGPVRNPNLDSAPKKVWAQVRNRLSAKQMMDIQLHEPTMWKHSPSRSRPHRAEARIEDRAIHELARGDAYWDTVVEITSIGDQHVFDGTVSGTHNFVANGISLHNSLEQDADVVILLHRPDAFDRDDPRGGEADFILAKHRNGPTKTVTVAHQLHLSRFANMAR
In words: DnaB intein splicing inhibitors, dose response, biochemical, cell-free fluorescence (AID 449749). The class given is functional.

Test [2] is described as follows: cells. Format: functional, cell-based.
Test [3] in a line: cells. The class given is functional, cell-based. This is another data set of the same source.
Test [4] can be described thus: cytotoxicity toward NIH3T3 fibroblasts, dose response, counter-screen, cell-based, ATP luminescence, mouse fibroblasts (AID 2010).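 Further: cells exposed to compound for about 90 hours before reading.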 The class given is functional. (In general: A counterscreen serves to expose hits that act by an unwanted route or on another target.)
The next test relates to HeLa. In words: HeLa cell cytotoxicity, dose response, cytotoxicity control for MITF activator project, CellTiter-Glo luminescence, cherry-pick samples (AID 540259). Format: functional, cell-based. The conditions noted are these: Homo sapiens. On the technique in general: ATP-based viability assays read luminescence as a measure of living cells.
Test [5] is described as follows: inhibitors of intracellular T. cruzi replication, confirmation, NIH3T3 host cells, beta-gal luminescence (AID 2044).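 Further: intracellular parasites grown in NIH/3T3 mouse fibroblasts as host cells; luminescent beta-galactosidase reporter signal from transgenic T. cruzi replicating inside host cells; inhibitors lower the luminescence signal.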 The class given is functional, cell-based.
For another test, the target named is Paired box protein Pax-8 (Homo sapiens, UniProt Q06710). The test is described as follows: inhibitors of PAX8-driven TPO luciferase reporter, dose response, RMG-I cells, cherry-pick (AID 687027).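 Further: luciferase reporter driven by Pax8 target thyroperoxidase promoter measured by SteadyGlo luminescence.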 The class given is functional, cell-based. (Reporter assays use an easily measured gene product as a stand-in for the process of interest.)
Chain of Paired box protein Pax-8 (Q06710 whole entry): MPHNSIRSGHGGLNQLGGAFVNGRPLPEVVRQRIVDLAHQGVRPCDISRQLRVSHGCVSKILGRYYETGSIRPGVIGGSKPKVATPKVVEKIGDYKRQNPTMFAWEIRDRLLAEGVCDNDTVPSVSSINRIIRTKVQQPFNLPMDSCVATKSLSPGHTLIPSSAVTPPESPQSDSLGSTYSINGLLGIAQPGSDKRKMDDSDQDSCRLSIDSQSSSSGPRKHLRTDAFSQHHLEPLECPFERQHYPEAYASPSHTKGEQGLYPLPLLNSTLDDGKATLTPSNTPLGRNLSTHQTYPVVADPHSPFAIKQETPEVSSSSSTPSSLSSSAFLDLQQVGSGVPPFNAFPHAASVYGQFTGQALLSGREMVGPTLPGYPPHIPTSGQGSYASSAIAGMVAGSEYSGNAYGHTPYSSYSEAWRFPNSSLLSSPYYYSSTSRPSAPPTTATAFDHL
A short description of test [6]: HepG2 cell cytotoxicity, dose response, cytotoxicity control for non-replicating M. tuberculosis project (AID 489018). Format: functional. The conditions noted are these: Mycobacterium tuberculosis.
The nature of test [7]: THP-1 cell cytotoxicity, dose response, cytotoxicity control for non-replicating M. tuberculosis project (AID 489025). Format: functional.
The nature of test [8]: cells.
Another test addresses Major prion protein (Homo sapiens, UniProt P04156). The class given is functional, cell-based.
The subject of a further test is Vero. The test is described as follows: cells. The conditions noted are these: Chlorocebus sabaeus. The class given is functional, cell-based.
Test [9] is described as follows: LGR2 antagonists, dose response, cell-based, HEK293, CRE-luciferase reporter, cherry pick, set 2 (AID 743343).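 Further: transfected cells were stimulated with diluted bursicon conditioned medium after compound addition.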 The class given is functional.
The nature of test [10]: A549 cell cytotoxicity, dose response, cytotoxicity control, plate reader, cherry-pick, antagonist series (AID 743412). Format: functional, cell-based.
Test [11] is described as follows: Luminescence Cell-Based Dose Confirmation HTS to Identify Inhibitors of Platelet Dense Granule Release. [Related pubchem assays: 1663 (Primary HTS), 1678 (Summary of Project)]. Format: functional.
The target in test [12] is T3, Luciferin 4-monooxygenase (Photinus pyralis, UniProt P08659). The test is described as follows: firefly luciferase enzyme inhibitors, dose response, biochemical, luminescence (AID 1891).
T3 sequence (P08659 whole entry): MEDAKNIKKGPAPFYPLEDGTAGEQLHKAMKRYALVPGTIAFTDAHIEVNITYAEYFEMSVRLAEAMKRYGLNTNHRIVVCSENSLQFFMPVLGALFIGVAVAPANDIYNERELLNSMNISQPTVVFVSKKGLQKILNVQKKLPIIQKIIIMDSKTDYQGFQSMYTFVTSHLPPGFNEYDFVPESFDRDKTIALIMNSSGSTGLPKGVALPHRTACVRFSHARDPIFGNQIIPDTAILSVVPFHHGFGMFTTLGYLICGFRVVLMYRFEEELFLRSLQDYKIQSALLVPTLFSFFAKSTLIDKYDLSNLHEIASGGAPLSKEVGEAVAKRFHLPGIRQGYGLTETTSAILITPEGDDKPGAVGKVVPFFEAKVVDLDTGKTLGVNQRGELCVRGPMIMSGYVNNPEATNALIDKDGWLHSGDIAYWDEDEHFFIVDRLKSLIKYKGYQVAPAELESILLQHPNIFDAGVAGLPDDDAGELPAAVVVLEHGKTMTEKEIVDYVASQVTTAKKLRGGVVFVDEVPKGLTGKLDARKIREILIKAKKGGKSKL
The target in test [13] is T3, Luciferin 4-monooxygenase. The test is described as follows: Counter Screen for Luciferase-based Assay Positives. [Related pubchem assays: 620, 618, 411 ].
For another test, the system named is HT-1080. The test is described as follows: cytotoxicity in HT1080 fibrosarcoma cells, cell-based, fluorescence readout (AID 620). The conditions noted are these: Homo sapiens. The class given is functional.
Test [14] can be described thus: HepG2 cell cytotoxicity, dose response, cytotoxicity control, plate reader, cherry-pick, antagonist series (AID 743416). The class given is functional, cell-based.
Test [15] can be described thus: MC4R antagonists, dose response, counter-screen for LGR2 antagonist project, cell-based, plate reader, cherry pick (AID 743444).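 Further: transfected HEK 293 cells stimulated with alpha-MSH peptide; potency of inhibitors of the alpha-MSH evoked signal.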 Format: functional.
Test [16] deals with FAD-linked sulfhydryl oxidase ALR (Homo sapiens, UniProt P55789). In words: inhibitors of human ALR sulfhydryl oxidase, dose response, biochemical, H2O2 detection, luminescence, cherry-pick (AID 493248).
Chain of FAD-linked sulfhydryl oxidase ALR (P55789 whole entry): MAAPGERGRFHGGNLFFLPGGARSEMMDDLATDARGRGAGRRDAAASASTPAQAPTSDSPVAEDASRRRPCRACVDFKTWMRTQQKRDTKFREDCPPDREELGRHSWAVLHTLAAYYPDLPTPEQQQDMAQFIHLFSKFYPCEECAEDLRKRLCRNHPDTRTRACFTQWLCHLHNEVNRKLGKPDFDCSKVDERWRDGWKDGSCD
The target of a further test is Estrogen receptor beta (Homo sapiens, UniProt Q92731).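 Further: recombinant ER-beta bound to coactivator SRC1 peptide in presence of estradiol agonist; inhibitors block coactivator peptide binding and lower the FRET signal.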
Chain of Estrogen receptor beta (Q92731 whole entry): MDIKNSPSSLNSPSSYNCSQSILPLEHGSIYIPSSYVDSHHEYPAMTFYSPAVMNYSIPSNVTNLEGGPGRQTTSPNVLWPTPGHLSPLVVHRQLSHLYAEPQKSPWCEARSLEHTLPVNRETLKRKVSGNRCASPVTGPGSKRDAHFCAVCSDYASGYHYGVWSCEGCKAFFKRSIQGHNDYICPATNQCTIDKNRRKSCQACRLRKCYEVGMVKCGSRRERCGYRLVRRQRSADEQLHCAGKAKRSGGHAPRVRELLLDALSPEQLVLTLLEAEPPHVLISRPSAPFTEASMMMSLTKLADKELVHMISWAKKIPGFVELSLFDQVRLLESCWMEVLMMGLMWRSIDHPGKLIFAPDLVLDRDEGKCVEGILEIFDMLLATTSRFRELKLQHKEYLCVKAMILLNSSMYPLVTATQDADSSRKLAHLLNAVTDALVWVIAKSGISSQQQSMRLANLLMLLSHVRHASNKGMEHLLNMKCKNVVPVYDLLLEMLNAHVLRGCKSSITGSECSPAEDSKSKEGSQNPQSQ
The target of test [17] is Dual specificity tyrosine-phosphorylation-regulated kinase 1A (Rattus norvegicus, UniProt Q63470). Format: biochemical, Homo sapiens.
The subject of a further test is H4. The test is described as follows: Luminescence Cell-Based Dose Response HTS to Identify Activators of 5'UTR Stem-Loop Driven Prion Protein mRNA Translation in H4 Neuroglioblastoma Cells. [Related pubchem assays: 1829 (Project Summary), 1814 (Primary HTS)]. To be noted: Homo sapiens. The class given is functional.

By IC50 is commonly meant the point on the concentration scale where inhibition reaches its midpoint. Usually EC50 stands for the concentration that produces a half-maximal response. As a reminder, the AC50 is the concentration at which the activity in the assay is half-maximal. Turning to `Nc1nc(C(=O)N2CCOCC2)nn1C(=O)c1ccc(Cl)cc1`, the IC50 on Prothrombin is 0.00512 µM (active). In addition, the EC50 on Protein RecA was 23.4 µM (active). For the same molecule, the AC50 in [1] was 12.5 µM (active).
In the case of `CC[n+]1c(S(=O)(=O)[O-])ccc2ccc(C)cc21`, the EC50 in “cells [2]” and in “cells [3]” was > 350 µM (not active) each time.
As to `Cc1ccc(NCC(=O)c2ccc(C)cc2)cc1`, the EC50 in test [4] is > 60 µM (not active); in test [5], 4.53 µM (active). In the test on HeLa, the AC50 is 103 µM (active).
A word on the CC50: it is the concentration giving 50% cytotoxicity. Regarding `CCOC(=O)Nc1ccc2c(c1)N(C(=O)CCCl)c1ccccc1[S@]2=O`, the AC50 at Paired box protein Pax-8 was 4.57 µM (active). Besides, the CC50 in test [6] is 18.9 µM (active); in [7] it was 24.7 µM (active).
Regarding `CCOc1ccc(C(=O)C2=C(O)C(=O)N(c3ccccn3)C2c2ccc(F)cc2)c(C)c1` (centres undefined), the IC50 was > 138 µM (inactive) in the test “cells [8]” and 13 µM (inactive) on Major prion protein.
Regarding `CCN(CC)CCCNC(=O)c1ccc2c(Cl)c3c(nc2c1)CCCC3`, the IC50 with Vero is 22.6 µM (active).
As to `CCCc1ccc(-c2ccc(F)c(N)c2)nc1`, the AC50 in [9] was 4.32 µM (active); in test [10], > 52 µM (inactive); in test [14] it was > 52 µM (inactive); in [15] it was 4.06 µM (active). Moreover, the EC50 in test [11] is 6.17 µM (active); in test [12] it was 6.33 µM (active); in [13], 1.58 µM (active); with HT-1080, > 50 µM (not active).
Take `CCn1cc(C(=O)NCc2ccc(Cl)cc2)c(=O)c2cc(S(=O)(=O)N3CCOCC3)ccc21`: the IC50 at Prothrombin is 8.07 µM (active).
Turning to `Cc1cccc(NC(=S)NC(=O)/C=C/c2ccccc2)n1`, on Prothrombin, the IC50 is > 50 µM (not active).
Regarding `CC(=O)Nc1cccc(-c2nc3ccc(NC(C)=O)cc3s2)c1`, the AC50 in the test with HeLa was 59.3 µM (active).
On to `CC(Oc1ccc2ccc(=O)oc2c1)C(=O)NCCN1CCOCC1` (centres undefined), for which the EC50 in the test “cells [2]” and in “cells [3]” was > 350 µM (not active) in each case.
For the molecule `O=C1OC(Nc2ccc3c(c2)OCO3)c2ccccc21` (centres undefined), the AC50 in test [16] is 0.577 µM (active). Moreover, on Estrogen receptor beta, the IC50 is recorded as > 50 µM (not active).
Take `N#C/C(=C/c1ccc(O)c([N+](=O)[O-])c1)C(=O)Nc1ccccc1`: in [17], the AC50 was 1.11 µM (active).
As to `Cc1ccc2[nH]c(-c3cccc(N)c3)nc2c1`, the AC50 in test [16] was 0.838 µM (active). Moreover, the results for the EC50 (in test [13]; with HT-1080) were 0.49 µM (active) and 20.6 µM (active), respectively.
As for `Cc1c(-c2cccs2)[n+]([O-])c2c([n+]1[O-])CCC2`, on Prothrombin, the IC50 is given as > 50 µM (not active).
With `CC(C)c1nc(SCC(=O)Nc2nc3c(s2)CCCC3)c2ccccc2n1`, the IC50 in the test “cells [8]” was > 138 µM (inactive); on Major prion protein, 5.97 µM (active).
For `CC(C)CC(NC(=O)c1ccccc1NC(=O)c1ccccc1)C(=O)O` (centres undefined), the EC50 in “cells [2]” and in “cells [3]” was > 350 µM (not active) throughout.
Take `O=C1C2C3C=CC(C3)C2C(=O)N1c1cccc2cccnc12` (centres undefined): the IC50 on Estrogen receptor beta is 21.4 µM (active).
Take `Cc1ccc(C(=O)Nc2nc3c(s2)CCCC3)o1`: the EC50 is given as > 100 µM (not active) in [13] and > 50 µM (not active) with HT-1080.
For the molecule `COc1ccc(C2=NN(c3ccccc3)C(c3ccc(OC)c(OC)c3)C2)cc1` (centres undefined), the AC50 with HeLa is 52 µM (active).
As for `Cc1cnc(NC(=O)c2cc(S(=O)(=O)N(C)C)ccc2N2CCCC2)s1`, the IC50 in “cells [8]” is > 138 µM (inactive); at Major prion protein, 2.87 µM (active).
For `CCOC(=O)COc1cc(Br)c(/C=N/Nc2ccccc2)cc1OC`, the IC50 was > 138 µM (inactive) in “cells [8]” and 16.4 µM (inactive) on Major prion protein.
As to `O=C(Nc1nc2ccccc2[nH]1)c1ccccc1`, the EC50 in test [13] is < 0.2 µM (active); in the test with HT-1080, > 50 µM (not active).
In the case of `CC(C)(C)c1cc(NC(=O)Nc2ccccc2)no1`, the AC50 with HeLa was > 350 µM (inactive). The concentration giving a half-maximal response (EC50) with H4 is given as > 120 µM (not active).
In the case of `C/C(=N\OCc1ccc(C#N)cc1)c1ccc(S(=O)(=O)N(C)C)cc1`, the AC50 with HeLa was 147 µM (active).
Take `COc1ccc(C(=O)NNC2=C(C(=O)C(F)(F)F)CCC2)cc1`: the half-maximal cytotoxic concentration (CC50) is > 20 µM (active) in test [6] and 18.1 µM (active) in test [7].
In the case of `O=c1c2c(O)cc(O)cc2oc2ccc(O)c(O[C@@H]3O[C@H](CO)[C@@H](O)[C@H](O)[C@H]3O[C@H]3O[C@H](CO)[C@@H](O)[C@H](O)[C@H]3O)c12`, the AC50 in test [17] was 3.69 µM (active).
